{"source": "patent US20220023269A1", "about": "“Methods Of Treating Diabetes In Severe Insulin-Resistant Diabetic Subjects” (Balticgruppen Bio AB, priority 2018, published 2022)", "key": {"[1]": {"test_system": "AMPK in human islets", "test": "AMPK activation in human islets", "assay_type": "cell-based", "conditions": "1.0, 2.5, 5.0, 10 μM, 4 hours", "experimental": "All cell lines were lysed in 0.1 M Tris-HCl, pH 6.8, 2% SDS, 10 mM sodium fluoride (SIGMA #S7920), 10 mM β-glycerophosphate (SIGMA #G6376), and 1 mM sodium vanadate (SIGMA #72060) and supernatant collected after 1 minute at 14,000 rpm. Islets (human and mouse) were lysed in 0.1 M Tris-HCl, pH 6.8, 2% SDS, protease inhibitor (Roche #04 693 124 001) and phosphatase inhibitor (Roche #04 906 837 001). Right calf muscle, heart, iWAT, and interscapular BAT was crushed in a pestle using liquid nitrogen and homogenised in ice cold RIPA buffer (150 mM sodium chloride (SIGMA #S7653), 1.0% NP40 (USB), 0.5% sodium deoxycholate (SIGMA #D6750), 0.1% SDS, 50 mM Tris pH 8.0, 20 mM sodium pyrophosphate (SIGMA #71515), 10 mM sodium fluoride, 10 mM β-glycerolphosphate, 1 mM sodium vanadate and protease inhibitor cocktail (Roche #04693124001), 1 tablet/10 ml lysis buffer). The supernatant was collected after 2 min at 14,000 rpm. This procedure was repeated until all fat was eliminated and the supernatant was clear, at 4° C. Samples were analysed on 4-15% polyacrylamide gels. Values were normalised toward AMPKα, β-Actin, GAPDH or the respective non-phosphorylated counterpart.\nTable 3 contains origin of cell lines, growth conditions and settings for activation of AMPK via the test material. […]"}, "[2]": {"test_system": "primary mouse islets", "test": "Unfolded protein response gene expression in islets at 22 mM glucose", "assay_type": "cell-based", "experimental": "For RNA purification calf muscle, iWAT, interscapular BAT, and left lateral liver lobe was crushed in a pestle using liquid nitrogen before turning to respective RNA kit. RNA from liver was prepared using Total RNA isolation Nucleospin II Kit (Macherey-Nagel #740955.50). RNA from adipose tissue was prepared using RNeasy Lipid Tissue Mini kit (Qiagen #74804). RNA from calf muscle tissue was prepared using RNeasy Fibrous Tissue Mini kit (Qiagen #74704). First strand cDNA synthesis was done using SuperScript III (First-Strand Synthesis SuperMix for qRT-PCR, Invitrogen #11752-250) according to the manufacturer's instructions. Total RNA was prepared from isolated islets using RNeasy Micro Kit (Qiagen #74004) and first strand cDNA synthesis was done using Superscript III (Invitrogen #18080-051) according to the manufacturer's instructions. Quantification of mRNA expression levels was performed essentially as previously described (Reference 3). Tyrosine 3-monooxygenase/tryptophan 5-monoxygenase activation protein, zeta polypeptide (YWHAS) was used to normalise expression levels except for islets where TBP was used."}, "[3]": {"test_system": "CBA mice on HFD", "test": "Crossover HFD / test material-HFD (2 mg/g) at housing and thermoneutral conditions", "assay_type": "in vivo", "experimental": "14 weeks old CBA mice were randomised into HFD and test material-HFD (2 mg/g) groups for 2 weeks while housed at 22° C. The two groups were then switched from HFD to test material-HFD and vice versa for an additional 4.5 weeks before transferred from 22° C. to 30° C. (thermoneutrality). After one week at 30° C. the diet was switched again and one week after the switch core body temperature were determined.\nFood intake was measured weekly by giving each cage 200 g pellet. After one week, the amount of pellets consumed were calculated and adjusted according to the number of animals/cage. Body weight was measured weekly. Body composition was assessed using EchoMRI."}, "[4]": {"molecular_target": "T1, PP2Ca (Homo sapiens, UniProt P35813)", "T1 construct": "purchased Abcam ab51205", "T1 sequence (P35813 whole entry)": "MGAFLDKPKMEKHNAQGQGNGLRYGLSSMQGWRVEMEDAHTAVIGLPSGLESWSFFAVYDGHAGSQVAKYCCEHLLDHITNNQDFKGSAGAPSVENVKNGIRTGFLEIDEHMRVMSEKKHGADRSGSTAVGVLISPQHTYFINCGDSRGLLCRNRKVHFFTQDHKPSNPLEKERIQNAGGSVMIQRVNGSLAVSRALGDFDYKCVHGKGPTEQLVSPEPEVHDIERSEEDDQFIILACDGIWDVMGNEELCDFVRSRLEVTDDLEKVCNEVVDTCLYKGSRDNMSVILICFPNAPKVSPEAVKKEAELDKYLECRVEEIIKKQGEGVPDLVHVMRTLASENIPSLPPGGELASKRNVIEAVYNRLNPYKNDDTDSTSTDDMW", "test": "PP2C phosphatase activity assay", "assay_type": "biochemical", "conditions": "5, 10 or 20 μM", "experimental": "3 ng/μl PP2Ca (Abcam ab51205) and 5, 10 or 20 μM test material in buffer (50 mM Tris-HCL pH 7.5, 0.1 mM EDTA, 0.5 mM DTT, 5 mM MgCl2) was used in the Sensolyte FDP protein phosphatase assay kit (Anaspec #71100) according to the manufacturer's instructions to measure the activity of PP2Ca. The fluorescence intensity was measured in a Bio Tek Synergy H4 multi-mode microplate reader."}, "[5]": {"test_system": "conscious beagle dogs", "test": "Cardiovascular safety pharmacology study using radiotelemetry in conscious beagle dogs", "assay_type": "in vivo", "conditions": "single oral doses 60, 180, 540 mg/kg", "experimental": "Telemetry analyses was performed by CiToxLAB North America (Laval, Quebec, Canada) in adult male beagle dogs, selected from CiToxLAB North America Dog Telemetry Colony, which had previously undergone surgery for telemetry transmitter implantation to monitor the arterial blood pressure, electrocardiogram, body temperature and locomotor activity (Data Science International, Model D70-PCT). All surgical procedures were performed in accordance with relevant Standard Operating Procedures. A telemetry transmitter was placed between the internal abdominal oblique muscle and the aponeurosis of the transverses abdominis of each animal. The pressure catheter was inserted into the femoral artery and the biopotential leads subcutaneously in a Lead II configuration. Test material was gavaged as a suspension at 60, 180, or 540 mg/kg."}}}
{"smiles": "O=C(Nc1nc(=O)n(Cc2ccc(Cl)cc2)s1)c1ccc(Cl)cc1", "note": "[test material, 4-chloro-N-[2-[(4-chlorophenyl)methyl]-3-oxo-1,2,4-thiadiazol-5-yl]benzamide]", "values": [{"measurement": "pAMPKα", "setting": "[1]", "result": "directly increased pAMPKα"}, {"measurement": "expression of unfolded protein response genes (ER stress)", "setting": "[2]", "result": "largely prevented an increased expression of unfolded protein response genes"}, {"measurement": "body weight gain", "setting": "[3]; 2 mg/g in HFD, day 1-14, housing temperature", "result": "gained almost no weight"}, {"measurement": "body weight at thermoneutrality, continued on test material-HFD", "setting": "[3]; 30° C. from day 49", "result": "still averted weight gain"}, {"measurement": "increase in core temperature vs HFD (nonsignificant)", "setting": "[3]; 30° C. housing", "result": 0.2, "unit": "°C"}, {"measurement": "core temperature", "setting": "[3]; 30° C. housing, one week after switch, n=5", "result": 37.9, "unit": "°C"}, {"measurement": "body weight after switch from HFD to test material-HFD at thermoneutrality", "setting": "[3]; 30° C., switch at day 57", "result": "rapidly started to lose weight"}, {"measurement": "body weight after switch from HFD to test material-HFD", "setting": "[3]; switch at day 15, housing temperature", "result": "rapidly started to lose weight"}, {"measurement": "activity of PP2C", "setting": "[4]", "result": "without inhibiting the activity of PP2C"}, {"measurement": "blood pressure (systolic and diastolic)", "setting": "[5]", "result": "acutely reduced blood pressure"}]}
